pEC50: −log10 of the molar value. Like-named read-outs stand apart in the source and are kept apart here.
System: squamous metoplasia and keratinization in organ cultures of trachea derived from vitamin A-deficient hamsters
Assay: inhibition of squamous metaplasia and keratinization (reversal of keratinization) in tracheal organ cultures
Assay type: cell-based, hamster
Details: Mesocricetus auratus, read-out: Reversal of Keratinization ED50
[1] = median effective dose: dose required for reversal of keratinization of 50% of the explants, by probit analysis, hamster trachea organ culture

SMILES | pEC50 [1] | pEC50
CC1=C(/C=C/C(C)=C/C=C/C(C)=C/C(=O)OCc2ccccc2N2C(=O)[C@@H](N=[N+]=[N-])[C@H]2/C=C/c2ccccc2)C(C)(C)CCC1 (relative stereo) [Compound IV] | 9.39 | 
CC1=C(/C=C/C(C)=C/C=C/C(C)=C/C(=O)OCc2cccc3c2N2C(=O)[C@@H](NC(=O)Cc4ccccc4)[C@H]2CO3)C(C)(C)CCC1 (relative stereo) [Compound VI] | 9.41 | 
CC1=C(/C=C/C(C)=C/C=C/C(C)=C/C(=O)OCc2ccccc2N2C(=O)[C@@H](NC(=O)Cc3ccccc3)[C@H]2/C=C/c2ccccc2)C(C)(C)CCC1 (relative stereo) [Compound V] | 9.70 | 
CC1=C(/C=C/C(C)=C/C=C/C(C)=C/C(=O)OC(C(=O)c2ccccn2)c2ccccn2)C(C)(C)CCC1 (centres unmarked) [Compound VII] | 9.51 | 
CC1=C(/C=C/C(C)=C/C=C/C(C)=C/C(=O)O)C(C)(C)CCC1 [β-All-trans-retinoic acid, reference compound] |  | 9.94
